Measured values from patent publication US10144732B2 (BIOGEN MA INC., priority 2014, dated 2018).
Several values for one entry are separate records, joined by “and”; a condition that tells them apart may be missing. Identical values can stand only once. Counter-ions that a name gives are not always drawn. Like-named read-outs stand apart in the source and are kept apart here.

Biological target: T1, Human ATX protein (Homo sapiens, UniProt Q13822)
T1 construct: made in house
Experiment: ATX biochemical assay (FRET, FS-3 substrate)
Details: FS-3 2 μM, ATX 1.0 μg/mL, 30 minutes preincubation, 2 hours reaction at room temperature
In short: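 FRET read-out: cleavage of FS-3 (2 μM final) unquenches fluorescein, measured at 485/538 nm after 2 h at room temperature. Before substrate addition, in-house-expressed human autotaxin (1.0 μg/mL) sat with compound for 30 min in pH 7.4 Tris/NaCl/KCl/CaCl2/MgCl2 buffer containing fatty acid free-BSA at 1 mg/mL.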

Row | Structure (SMILES) | IC50 (FRET assay, read-out: IC50) | IC50 (IC50, FRET assay)
1 | COC(=O)[C@H]1CC[C@@H](N(C)C(=O)N2CCc3c(C(F)(F)F)nn(Cc4ccc(Cl)cc4F)c3C2)CC1 [Example 3-3, cis-Methyl 4-(1-(4-chloro-2-fluorobenzyl)-N-methyl-3-(trifluoromethyl)-4,5,6,7-tetrahydro-1H-pyrazolo[3,4-c]pyridine-6-carboxamido)cyclohexanecarboxylate] | > 500 nM and ≤ 10000 nM | –
2 | CCCC1CC(CC(=O)N2CCc3c(C(F)(F)F)nn(Cc4ccc(F)cc4)c3C2)CCN1C (stereo not drawn) [Example 10-8, 1-(1-(4-Fluorobenzyl)-3-(trifluoromethyl)-4,5-dihydro-1H-pyrazolo[3,4-c]pyridin-6(7H)-yl)-2-(1-methyl-2-propylpiperidin-4-yl)ethanone acid TFA salt] | ≤ 100 nM | –
3 | CN1CCC(CC(=O)N2CCc3c(C(F)(F)F)nn(Cc4ccc(F)cc4)c3C2)C1 (stereo not drawn) [Example 10-5, 1-(1-(4-Fluorobenzyl)-3-(trifluoromethyl)-4,5-dihydro-1H-pyrazolo[3,4-c]pyridin-6(7H)-yl)-2-(1-methylpyrrolidin-3-yl)ethanone] | 100 to 250 nM | –
4 | O=C(O)CC1CCN(CC(=O)N2CCc3c(C(F)(F)F)nn(Cc4ccc(F)cc4)c3C2)C1 (stereo not drawn) [Example 13-25, 2-(1-(2-(1-(4-Fluorobenzyl)-3-(trifluoromethyl)-4,5-dihydro-1H-pyrazolo[3,4-c]pyridin-6(7H)-yl)-2-oxoethyl)pyrrolidin-3-yl)acetic acid TFA salt] | ≤ 100 nM | –
5 | O=C(O)CCCC(=O)N1CCc2c(C(F)(F)F)nn(Cc3ccc(Cl)cc3F)c2C1 [Example 14-2, 5-(1-(4-Chloro-2-fluorobenzyl)-3-(trifluoromethyl)-4,5-dihydro-1H-pyrazolo[3,4-c]pyridin-6(7H)-yl)-5-oxopentanoic acid] | ≤ 100 nM | –
6 | CC(C)(C)OC(=O)NC12CCC(C(=O)N3CCc4c(C(F)(F)F)nn(Cc5ccc(F)cc5)c4C3)(CC1)CC2 [Example 8-10, tert-Butyl 4-(1-(4-fluorobenzyl)-3-(trifluoromethyl)-4,5,6,7-tetrahydro-1H-pyrazolo[3,4-c]pyridine-6-carbonyl)bicyclo[2.2.2]octan-1-ylcarbamate] | ≤ 100 nM | –
7 | O=C(O)C1CC2CCC(C1)N2CC(=O)N1CCc2c(C(F)(F)F)nn(Cc3ccc(F)cc3)c2C1 (stereo not drawn) [Example 13-5, 8-(2-(1-(4-Fluorobenzyl)-3-(trifluoromethyl)-4,5-dihydro-1H-pyrazolo[3,4-c]pyridin-6(7H)-yl)-2-oxoethyl)-8-azabicyclo[3.2.1]octane-3-carboxylic acid] | – | ≤ 100 nM
8 | CC(C)(C)OC(=O)N1C2CCC1CC(CC(=O)N1CCc3c(C(F)(F)F)nn(Cc4ccc(Cl)cc4F)c3C1)C2 (stereo not drawn) [Example 8-1, tert-Butyl 3-(2-(1-(4-chloro-2-fluorobenzyl)-3-(trifluoromethyl)-4,5-dihydro-1H-pyrazolo[3,4-c]pyridin-6(7H)-yl)-2-oxoethyl)-8-azabicyclo[3.2.1]octane-8-carboxylate] | – | ≤ 100 nM
9 | O=C(O)C1CC2CCC(C1)N2CC(=O)N1CCc2c(C(F)(F)F)nn(Cc3ccc(Cl)cc3F)c2C1 (stereo not drawn) [Example 13-4, 8-(2-(1-(4-Chloro-2-fluorobenzyl)-3-(trifluoromethyl)-4,5-dihydro-1H-pyrazolo[3,4-c]pyridin-6(7H)-yl)-2-oxoethyl)-8-azabicyclo[3.2.1]octane-3-carboxylic acid] | – | ≤ 100 nM
10 | O=C(O)CCNCC(=O)N1CCc2c(C(F)(F)F)nn(Cc3ccc(F)cc3)c2C1 [Example 13-16, 3-(2-(1-(4-Fluorobenzyl)-3-(trifluoromethyl)-4,5-dihydro-1H-pyrazolo[3,4-c]pyridin-6(7H)-yl)-2-oxoethylamino)propanoic acid TFA salt] | ≤ 100 nM | –
11 | O=C(O)CCC(=O)N1CCc2c(C(F)(F)F)nn(Cc3ccc(Cl)cc3F)c2C1 [Example 14-3, 4-(1-(4-Chloro-2-fluorobenzyl)-3-(trifluoromethyl)-4,5-dihydro-1H-pyrazolo[3,4-c]pyridin-6(7H)-yl)-4-oxobutanoic acid] | ≤ 100 nM | –
12 | O=C(CC12CCC(C(=O)O)(CC1)CC2)N1CCc2c(C(F)(F)F)nn(Cc3ccc(Cl)cc3F)c2C1 [Example 5-12, 4-(2-(1-(4-Chloro-2-fluorobenzyl)-3-(trifluoromethyl)-4,5-dihydro-1H-pyrazolo[3,4-c]pyridin-6(7H)-yl)-2-oxoethyl)bicyclo[2.2.2]octane-1-carboxylic acid] | ≤ 100 nM | –

The next lines start with results.

Row | IC50 (FRET assay, read-out: IC50) | Structure (SMILES) | IC50 (IC50, FRET assay)
13 | ≤ 100 nM | O=C(O)C1CC2(CC(CC(=O)N3CCc4c(C(F)(F)F)nn(Cc5ccc(Cl)cc5F)c4C3)C2)C1 (stereo not drawn) [Example 6-12, 6-(2-(1-(4-Chloro-2-fluorobenzyl)-3-(trifluoromethyl)-4,5-dihydro-1H-pyrazolo[3,4-c]pyridin-6(7H)-yl)-2-oxoethyl)spiro[3.3]heptane-2-carboxylic acid] | –
14 | ≤ 100 nM | O=C(O)C1CCC(CC(=O)N2CCc3c(C(F)(F)F)nn(Cc4ccc(C(F)(F)F)cc4)c3C2)CC1 (mixture of isomers) [Example 6-2, 4-(2-Oxo-2-(3-(trifluoromethyl)-1-(4-(trifluoromethyl)benzyl)-4,5-dihydro-1H-pyrazolo[3,4-c]pyridin-6(7H)-yl)ethyl)cyclohexanecarboxylic acid] | –
15 | ≤ 100 nM | CCOC(=O)C1CCC(CC(=O)N2CCc3c(C(F)(F)F)nn(CC4CCCCC4)c3C2)CC1 (stereo not drawn) [Example 1-16, Ethyl 4-(2-(1-(cyclohexylmethyl)-3-(trifluoromethyl)-4,5-dihydro-1H-pyrazolo[3,4-c]pyridin-6(7H)-yl)-2-oxoethyl)cyclohexanecarboxylate] | –
16 | ≤ 100 nM | O=C(O)C1CC2CN(CC(=O)N3CCc4c(C(F)(F)F)nn(Cc5ccc(F)cc5)c4C3)CC2C1 (stereo not drawn) [Example 13-10, 2-(2-(1-(4-Fluorobenzyl)-3-(trifluoromethyl)-4,5-dihydro-1H-pyrazolo[3,4-c]pyridin-6(7H)-yl)-2-oxoethyl)octahydrocyclopenta[c]pyrrole-5-carboxylic acid TFA salt] | –
17 | ≤ 100 nM | O=C(C[C@H]1CC[C@H](N2CC(F)(F)C2)CC1)N1CCc2c(C(F)(F)F)nn(Cc3ccc(F)cc3)c2C1 [Example 22-8, 2-(trans-4-(3,3-difluoroazetidin-1-yl)cyclohexyl)-1-(1-(4-fluorobenzyl)-3-(trifluoromethyl)-4,5-dihydro-1H-pyrazolo[3,4-c]pyridin-6(7H)-yl)ethanone TFA salt] | –
18 | > 500 nM and ≤ 10000 nM | O=C(C[C@H]1CC[C@H](C(=O)O)CC1)N1CCc2c(C(F)(F)F)nn(C3CCCCC3)c2C1 [Example 7-19, trans-4-(2-(1-cyclohexyl-3-(trifluoromethyl)-4,5-dihydro-1H-pyrazolo[3,4-c]pyridin-6(7H)-yl)-2-oxoethyl)cyclohexanecarboxylic acid] | –
19 | ≤ 100 nM | O=C(C[C@H]1CC[C@@H](C(=O)O)CC1)N1CCc2c(C(F)(F)F)nn(Cc3cc(F)cc(Cl)c3)c2C1 [Example 5-4, cis-4-(2-(1-(3-chloro-5-fluorobenzyl)-3-(trifluoromethyl)-4,5-dihydro-1H-pyrazolo[3,4-c]pyridin-6(7H)-yl)-2-oxoethyl)cyclohexanecarboxylic acid] | –
20 | > 500 nM and ≤ 10000 nM | O=C(C[C@H]1CC[C@@H](C(=O)O)CC1)N1CCc2c(C(F)(F)F)nn(C3CCCCC3)c2C1 [Example 7-20, cis-4-(2-(1-cyclohexyl-3-(trifluoromethyl)-4,5-dihydro-1H-pyrazolo[3,4-c]pyridin-6(7H)-yl)-2-oxoethyl)cyclohexanecarboxylic acid] | –
21 | ≤ 100 nM | O=C(N[C@H]1CC[C@@H](C(=O)O)CC1)N1CCc2c(C(F)(F)F)nn(Cc3ccc(Cl)cc3F)c2C1 [Example 5-6, cis-4-(1-(4-chloro-2-fluorobenzyl)-3-(trifluoromethyl)-4,5,6,7-tetrahydro-1H-pyrazolo[3,4-c]pyridine-6-carboxamido)cyclohexanecarboxylic acid] | –
22 | ≤ 100 nM | O=C(CN[C@H]1C[C@H](C(=O)O)C1)N1CCc2c(C(F)(F)F)nn(Cc3ccc(F)cc3)c2C1 [Example 13-29, trans-3-(2-(1-(4-Fluorobenzyl)-3-(trifluoromethyl)-4,5-dihydro-1H-pyrazolo[3,4-c]pyridin-6(7H)-yl)-2-oxoethylamino)cyclobutanecarboxylic acid TFA salt] | –
23 | ≤ 100 nM | O=C(O)C1CCN(CC(=O)N2CCc3c(C(F)(F)F)nn(Cc4ccc(F)cc4)c3C2)C1 (stereo not drawn) [Example 13-12, 1-(2-(1-(4-Fluorobenzyl)-3-(trifluoromethyl)-4,5-dihydro-1H-pyrazolo[3,4-c]pyridin-6(7H)-yl)-2-oxoethyl)pyrrolidine-3-carboxylic acid] | –
24 | ≤ 100 nM | CN(C(=O)N1CCc2c(C(F)(F)F)nn(Cc3ccc(Cl)cc3F)c2C1)[C@H]1CC[C@@H](C(=O)O)CC1 [Example 5-9, cis-4-(1-(4-Chloro-2-fluorobenzyl)-N-methyl-3-(trifluoromethyl)-4,5,6,7-tetrahydro-1H-pyrazolo[3,4-c]pyridine-6-carboxamido)cyclohexanecarboxylic acid] | –
25 | ≤ 100 nM | CCOC(=O)[C@H]1CC[C@H](CC(=O)N2CCc3c(C4CC4)nn(Cc4ccc(F)cc4)c3C2)CC1 [Example 1-39, trans-Ethyl 4-(2-(3-cyclopropyl-1-(4-fluorobenzyl)-4,5-dihydro-1H-pyrazolo[3,4-c]pyridin-6(7H)-yl)-2-oxoethyl)cyclohexanecarboxylate] | –
26 | ≤ 100 nM | CN1CCCC(CC(=O)N2CCc3c(C(F)(F)F)nn(Cc4ccc(F)cc4)c3C2)C1 (stereo not drawn) [Example 11-1, 1-(1-(4-Fluorobenzyl)-3-(trifluoromethyl)-4,5-dihydro-1H-pyrazolo[3,4-c]pyridin-6(7H)-yl)-2-(1-methylpiperidin-3-yl)ethanone formate] | –
27 | 100 to 250 nM | CCOC(=O)[C@H]1CC[C@H](CC(=O)N2CCc3c(C(F)(F)F)nn(CCc4ccccc4)c3C2)CC1 [Example 1-28, trans-Ethyl 4-(2-oxo-2-(1-phenethyl-3-(trifluoromethyl)-4,5-dihydro-1H-pyrazolo[3,4-c]pyridin-6(7H)-yl)ethyl)cyclohexanecarboxylate] | –
